Consider two compounds from ChEMBL document CHEMBL5346896, “Development of indolealkylamine derivatives as potential multi-target agents for COVID-19 treatment” (Eur J Med Chem, 2023).

Each structure is given as a SMILES string.

The test concerns SARS-CoV-2. Briefly: Antiviral activity against SARS-CoV-2 spike pseudotyped lentivirus infected in HEK293 cells expressing human ACE2 assessed as inhibition of viral entry into cells preincubated with cell for 1 hrs followed by viral infection for 1 hrs and further replaced with fresh medium and measured 48 hrs post transduction by luminescence based luciferase reporter assay. It counts as functional, organism-based, HEK293T. As to conditions: Severe acute respiratory syndrome coronavirus 2, HEK-293T. (Reporter assays use an easily measured gene product as a stand-in for the process of interest.)

Consider `COc1ccc2[nH]c(C(O)c3ccc(Cl)cc3)c(CCNC(C)=O)c2c1` (configuration not stated), for which the IC50 was approximately 1000 nM.

For `COC(=O)NCCc1c(C(O)c2ccccc2)[nH]c2ccc(OC)cc12` (configuration not stated), the half-maximal inhibitory concentration (IC50) was approximately 1000 nM.

By IC50 is commonly meant the concentration that inhibits the measured activity by half.
